The subject of experiment [1] is DBA/Lac mice injected with type II chick collagen. As to the kind of experiment: Type II collagen arthritis in mice, oral 10 mg/kg/day (Example 13). The class given is in vivo. The conditions noted are these: gavage 10 mg/kg/day, day 21 to day 49. The method, then: DBA/Lac mice were injected with 200 μg of type II chick collagen emulsified in Freund's complete adjuvant on day 0 and on day 21. Mu-Phe-HPhe-O-Ph was suspended in an ethanol solution which was then diluted to 10% (aq) and administered by gavage at a dose of 10 mg/kg/day from day 21 until sacrifice at day 49. The severity of joint inflammation was evaluated grossly at seven day intervals beginning on day 21. The effect of oral administration of Mu-Phe-HPhe-O-Ph on the severity of bone lesions in adjuvant-induced arthritis wa determined by evaluating osseous mineralization, periostat proliferation, bone erosion, joint space narrowing and osseous fragmentation. All lesions were scored on a scale of 0 (normal architecture) to 3 (severe or marked changes). Values calculated were means values ±1 std. error of the mean. […] The effect of oral administration of Mu-Phe-HPhe-O-Ph on the histological aspects of adjuvant-induced arthritis was determined by evaluating inflammation, focul ulcers, tibiotarsal joint cartilage destruction, bone destruction and periosteal proliferation. Inflammation was scored on a scale of 0 (no inflammation) to 3 (severe) based on the extent of edema and cell infiltration. Focul ulcer cartilage destruction was measured as the percent of articular cartilage surfaces with focal destruction which exposed underlying subchondral bone. […]

In experiment [2] the test system is 45Ca2+-labelled bones (calvaria) of neonatal mice. Kind of experiment: Parathyroid hormone-stimulated 45Ca2+ release from cultured mouse calvaria. The class given is cell-based. The conditions noted are these: 24 hour period, PTH-stimulated. On the procedure:
(§1) Treatment of Osteo Arthritis with Mu-Phe-HPhe-O-Ph. ^45 Ca^2+ -labelled bones (calvaria) of neonatal mice were maintained in culture. The effect of the test compound on the rate of parathyroid hormone-stimulated ^45 Ca^2+ release was measured over a 24 hour period. An inhibitor of bone resorption (at maximal concentrations) would be expected to inhibit this rate by approximately 70%. The nature of the residual, uninhibitable ^45 Ca^2+ -release is not known but could represent chemical exchange of ^45 Ca^2+ with the medium. Mu-Phe-HPhe-O-Ph was dissolved in dimethylsulphoxide which was present in the incubation at concentrations <0.1%.
as §1, with “Mu-Leu-HPhe-O-Ph.” for “Mu-Phe-HPhe-O-Ph.”, “Mu-Leu-HPhe-O-Ph” for “Mu-Phe-HPhe-O-Ph”
as §1, with “Mu-Tyr(OMe)-HPhe-O-Ph.” for “Mu-Phe-HPhe-O-Ph.”, “Mu-Tyr(OMe)-HPhe-O-Ph” for “Mu-Phe-HPhe-O-Ph”
as §1, with “Z-Phe-Ala-O-Ph.” for “Mu-Phe-HPhe-O-Ph.”, “Z-Phe-Ala-O-Ph” for “Mu-Phe-HPhe-O-Ph”
as §1, with “Mu-Tyr(OMe)-HPhe-O-Ph.” for “Mu-Phe-HPhe-O-Ph.”, “labelled” for “-labelled”, “Mu-Tyr(OMe)-HPhe-O-Ph” for “Mu-Phe-HPhe-O-Ph”

`O=C(O)Cc1ccccc1OCC(=O)[C@H](CCc1ccccc1)NC(=O)[C@H](Cc1ccccc1)NC(=O)N1CCOCC1` [Mu-Phe-HPhe-O-Ph, (4-morpholinylcarbonyl)-L-phenylalanyl-L-homophenylalanyl-(2-carboxymethyl)phenoxymethyl ketone]: the “histological aspects values vs control animals” value in experiment [1] (inflammation, focul ulcers, tibiotarsal joint cartilage destruction, bone destruction, periosteal proliferation) was “significantly (p<0.05) lower than the values of control animals”. In addition, the “bone lesion severity values vs control animals” value in experiment [1] (osseous mineralization, periostat proliferation, bone erosion, joint space narrowing, osseous fragmentation, scale 0-3) is listed as “significantly (p<0.05) lower than the values of control animals”. The “inhibition of the rate of 45Ca2+-release” value in experiment [2] (1 μm inhibitor) stood at 50%. In experiment [2] (100 μm inhibitor), the “additional inhibition of the rate of 45Ca2+-release” value is 20%.

For the origin of these results see patent US5374623A, “Cysteine protease inhibitors effective for in vivo use” (Prototek, Inc., priority 1992, dated 1994).
